ChEMBL document CHEMBL1143446, “Azaflavones compared to flavones as ligands to the benzodiazepine binding site of brain GABA(A) receptors” (Bioorg Med Chem Lett, 2008)

Key:
[1] = molecular target: GABA-A receptor; alpha-1/beta-3/gamma-2 (Rattus norvegicus); assay: Displacement of [3H]flumazenil in rat GABAA alpha-1-beta-3-gamma-2 receptor expressed in HEK293 cells
[2] = molecular target: GABA-A receptor; alpha-2/beta-3/gamma-2 (Rattus norvegicus); assay: Displacement of [3H]flumazenil in rat GABAA alpha-2-beta-3-gamma-2 receptor expressed in HEK293 cells
[3] = molecular target: Gamma-aminobutyric acid receptor subunit alpha-3 (Rattus norvegicus, UniProt P18508+P20236+P63079); assay: Displacement of [3H]flumazenil in rat GABAA alpha-3-beta-3-gamma-2 receptor expressed in HEK293 cells; format: cell-based
Rattus norvegicus [4] = species on record: Rattus norvegicus; assay: Selectivity ratio of Ki for rat GABAA alpha-3-beta-3-gamma-2 receptor to Ki for GABAA alpha-1-beta-3-gamma-2 receptor
Rattus norvegicus [5] = species on record: Rattus norvegicus; assay: Selectivity ratio of Ki for rat GABAA alpha-2-beta-3-gamma-2 receptor to Ki for GABAA alpha-1-beta-3-gamma-2 receptor
[6] = Displacement of [3H]flumazenil from GABAA in rat cortical tissue
[7] = molecular target: GABA A receptor alpha-5/beta-3/gamma-2 (Rattus norvegicus, UniProt P18508+P19969+P63079); assay: Displacement of [3H]flumazenil in rat GABAA alpha-5-beta-3-gamma-2 receptor expressed in HEK293 cells; format: cell-based
GABA A receptor alpha-5/beta-3/gamma-2, sequence (P18508 whole entry): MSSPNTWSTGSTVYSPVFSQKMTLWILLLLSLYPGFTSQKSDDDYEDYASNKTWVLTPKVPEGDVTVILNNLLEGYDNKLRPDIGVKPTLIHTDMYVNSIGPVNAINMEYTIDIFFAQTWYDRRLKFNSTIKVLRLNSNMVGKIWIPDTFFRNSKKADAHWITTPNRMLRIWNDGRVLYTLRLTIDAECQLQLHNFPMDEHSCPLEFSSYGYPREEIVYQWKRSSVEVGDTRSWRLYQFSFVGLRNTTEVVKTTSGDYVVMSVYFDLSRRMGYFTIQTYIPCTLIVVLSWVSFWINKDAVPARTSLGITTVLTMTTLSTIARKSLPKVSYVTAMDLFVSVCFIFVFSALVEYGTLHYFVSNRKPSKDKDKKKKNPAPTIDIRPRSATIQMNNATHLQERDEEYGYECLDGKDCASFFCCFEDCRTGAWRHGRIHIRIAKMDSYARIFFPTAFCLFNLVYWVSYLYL
GABA A receptor alpha-5/beta-3/gamma-2, sequence (P19969 whole entry): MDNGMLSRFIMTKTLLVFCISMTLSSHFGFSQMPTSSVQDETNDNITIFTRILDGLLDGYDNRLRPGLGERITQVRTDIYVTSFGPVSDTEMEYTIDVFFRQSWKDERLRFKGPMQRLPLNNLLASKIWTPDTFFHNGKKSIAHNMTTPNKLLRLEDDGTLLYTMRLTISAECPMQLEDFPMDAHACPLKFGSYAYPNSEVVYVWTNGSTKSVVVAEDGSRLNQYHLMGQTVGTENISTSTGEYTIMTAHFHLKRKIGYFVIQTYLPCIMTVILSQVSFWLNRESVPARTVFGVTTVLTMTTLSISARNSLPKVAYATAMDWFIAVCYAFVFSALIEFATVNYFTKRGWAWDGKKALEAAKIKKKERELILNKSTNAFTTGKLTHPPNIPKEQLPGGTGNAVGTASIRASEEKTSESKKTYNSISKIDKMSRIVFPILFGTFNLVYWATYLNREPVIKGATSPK
GABA A receptor alpha-5/beta-3/gamma-2, sequence (P63079 whole entry): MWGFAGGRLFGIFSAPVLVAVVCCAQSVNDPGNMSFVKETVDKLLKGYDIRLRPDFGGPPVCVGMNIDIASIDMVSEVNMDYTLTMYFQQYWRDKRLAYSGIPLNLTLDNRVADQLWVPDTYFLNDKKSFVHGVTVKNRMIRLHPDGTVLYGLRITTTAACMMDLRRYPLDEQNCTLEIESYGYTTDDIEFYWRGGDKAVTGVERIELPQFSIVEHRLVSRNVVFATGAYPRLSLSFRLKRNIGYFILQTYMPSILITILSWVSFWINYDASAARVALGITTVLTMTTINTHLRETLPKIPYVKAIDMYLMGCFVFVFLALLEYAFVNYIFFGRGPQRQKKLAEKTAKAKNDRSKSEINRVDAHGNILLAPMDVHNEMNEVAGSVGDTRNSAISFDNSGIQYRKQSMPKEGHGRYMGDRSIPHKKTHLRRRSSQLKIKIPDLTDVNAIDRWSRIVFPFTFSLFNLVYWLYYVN

Gamma-aminobutyric acid receptor subunit alpha-3, sequence (P20236 whole entry, one chain of several): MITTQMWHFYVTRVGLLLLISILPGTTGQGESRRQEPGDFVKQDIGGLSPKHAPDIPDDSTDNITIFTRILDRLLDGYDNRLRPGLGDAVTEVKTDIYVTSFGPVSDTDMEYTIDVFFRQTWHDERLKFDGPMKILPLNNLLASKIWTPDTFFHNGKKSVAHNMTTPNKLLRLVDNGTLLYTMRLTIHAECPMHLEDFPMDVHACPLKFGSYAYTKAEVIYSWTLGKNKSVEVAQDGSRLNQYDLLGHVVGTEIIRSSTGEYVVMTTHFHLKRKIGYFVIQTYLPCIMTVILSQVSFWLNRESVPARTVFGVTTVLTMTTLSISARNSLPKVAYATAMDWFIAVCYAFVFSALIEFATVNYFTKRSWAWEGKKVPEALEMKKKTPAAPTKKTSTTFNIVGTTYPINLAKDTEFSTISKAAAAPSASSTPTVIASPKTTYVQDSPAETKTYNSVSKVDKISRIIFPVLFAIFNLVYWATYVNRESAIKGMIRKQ

Compound | Ki [1] [nM] | Ki [2] [nM] | Ki [3] [nM] | Selectivity ratio (Rattus norvegicus [4]) | Selectivity ratio (Rattus norvegicus [5]) | Ki [6] [nM] | Ki [7] [nM]
Cc1ccc2nc(-c3cc(Br)ccc3O)cc(O)c2c1 | 39 | 120 | 99 | – | – | – | –
Cc1ccc2[nH]c(-c3cc(Br)ccc3O)cc(=O)c2c1 | – | – | – | 8 | 5 | 22 | –
Cc1ccc2[nH]c(-c3cc(Cc4ccccc4)ccc3O)cc(=O)c2c1 | 1.2 | 18 | 31 | 8 | 5 | 2 | 7.3
Cc1ccc2c(c1)c(=O)cc(-c1cc(Br)ccc1O)n2C | – | – | – | 8 | 5 | 1100 | –
COc1ccc(Br)cc1-c1cc(=O)c2cc(C)ccc2o1 | – | – | – | – | – | > 1500 | –
CCc1ccc2oc(-c3ccccc3)cc(=O)c2c1 | – | – | – | – | – | 180 | –
COc1ccc(Br)cc1-c1cc(=O)c2cc(C)ccc2[nH]1 | – | – | – | – | – | 730 | –
Cc1ccc2nc(-c3cc(Br)ccc3O)cc(N3CCOCC3)c2c1 | – | – | – | – | – | 840 | –
Cc1ccc2nc(-c3cc(Cc4ccccc4)ccc3O)cc(N3CCOCC3)c2c1 | – | – | – | – | – | 400 | –
Cc1ccc2oc(-c3cc(Br)ccc3O)cc(=O)c2c1 | – | – | – | 8 | 5 | 0.9 | –
CCc1ccc2[nH]c(-c3ccccc3)cc(=O)c2c1 | – | – | – | – | – | 1200 | –
Cc1ccc2oc(-c3cc(Cc4ccccc4)ccc3O)cc(=O)c2c1 | 0.8 | 19 | 11 | – | – | 0.6 | 2.4
